Some results are limits rather than exact numbers.

For one test, the system named is T. brucei TC221. Nature of the test: Viability of T. brucei TC221 bloodstream forms (resazurin fluorescence). It counts as cell-based, Trypanosoma brucei. The method, then: (§1) The biological assays have been conducted in collaboration with Prof. Anders Hofer, Department of Medical Biochemistry and Biophysics, Umeå University, Umeå, Sweden. T. bruceiTC221 bloodstream forms and mouse embryonic fibroblast Balb/3T3 cells (ATCC no CCL-163) were cultivated in a vented plastic flask at 37 °C with 5% CO2. For T. brucei, the growth medium was Hirumi’s modified Iscoves medium (HMI)-9 supplemented with 10% (v/v) fetal bovine serum (Thermo Fischer Scientific Gibco, Waltham, MA, USA), whereas the Balb/3T3 cells were grown in Dulbecco’s modified Eagle’s medium (Sigma-Aldrich) supplemented with 10% (v/v) heat-inactivated fetal bovine serum, glutamine (0.584 g/L), and 10 mL/L 100 × penicillin–streptomycin (Gibco).[48]−[50] […] The plates were incubated for 48 h in the 5%CO2 incubator; then, 20 μL of 0.5 mM resazurine (Sigma-Aldrich) was added to each well, and the plates were incubated for an additional 24 h before the fluorescence was measured with the Synergy H4 microplate reader (excitation wavelength 530 or 540 nm and emission wavelength 590 nm).
(§2) The half-maximal efficacious concentration (EC50) values were calculated on the log inhibitor versus the response curves by non-linear regression using the GraphPad prism 5.2 software (GraphPad Software, Inc., La Jolla, CA, USA). […]
(In general: The colour change of resazurin is a common sign of viable cells or microbes.)

Another test concerns Balb/3T3 cells. Nature of the test: Cytotoxicity on Balb/3T3 mammalian reference cells (resazurin fluorescence). It is filed as cell-based. As to conditions: mouse embryonic fibroblasts, 48 h + 24 h with resazurin. As for the experimental part: as §1, §2

Consider `Cc1ccc(C(=O)Nc2ccc(S(=O)(=O)O)c3cc(S(=O)(=O)O)cc(S(=O)(=O)O)c23)cc1NC(=O)c1cccc(NC(=O)Nc2cccc(C(=O)Nc3cc(C(=O)Nc4ccc(S(=O)(=O)O)c5cc(S(=O)(=O)O)cc(S(=O)(=O)O)c45)ccc3C)c2)c1` [suramin, reference compound], for which the “SI (selectivity index)” value in the test with T. brucei TC221 (T. brucei versus Balb/3T3 reference cells) was above 100. Moreover, the EC50 came to 23 ± 0.8 nM with T. brucei TC221 (Trypanosoma brucei, bloodstream forms, 48 h + 24 h with resazurin) and 43.9 ± 1.44 µM with Balb/3T3 cells.

A word on the EC50: it is the concentration that produces a half-maximal response.

Source of the values: PMC9446893, “Zinc(II) Complex with Pyrazolone-Based Hydrazones is Strongly Effective against Trypanosoma brucei Which Causes African Sleeping Sickness” (Inorganic Chemistry, 2022).
